Laboratory results taken from BigSolDB 2.1.

COc1cc(/C=C/C(=O)CC(=O)/C=C/c2ccc(O)c(OC)c2)ccc1O
solubility (mole fraction)
Conditions | 278.15 K | 283.15 K | 288.15 K | 293.15 K | 298.15 K | 303.15 K | 308.15 K | 313.15 K | 318.15 K
in ethanol | 0.000407 | 0.000497 | 0.000573 | 0.000662 | 0.000769 | 0.000888 | 0.00101 | 0.00113 | 0.00128
in isopropanol | 0.00146 | 0.0017 | 0.00194 | 0.00219 | 0.00252 | 0.00284 | 0.00317 | 0.00357 | 0.004
in n-propanol | 0.0023 | 0.0026 | 0.00291 | 0.00325 | 0.0036 | 0.00401 | 0.00437 | 0.00484 | 0.00526
in propylene glycol | 0.000715 | 0.000827 | 0.000967 | 0.0011 | 0.00126 | 0.00143 | 0.00161 | 0.00182 | 0.00206
in water | 8.34e-09 | 1.16e-08 | 1.59e-08 | 2.15e-08 | 2.94e-08 | 4.03e-08 | 5.38e-08 | 7.06e-08 | 9.32e-08
